In brackets after ≈: the same amount, converted by molar mass.
What was measured:
Assay type in all cases: functional
Conditions in all cases: Homo sapiens, read-out: LD50 (the source's name)
COLO 205 = assay: Tested for its in vitro cytotoxicity against COLO-205 cells
HEp-2 = assay: Tested for its in vitro cytotoxicity against HEP-2 cells
HeLa = assay: Tested for its in vitro cytotoxicity against Hela cells
[1] = Tested for its in vitro cytotoxicity against KB cells

Structure (SMILES)	CC50 (COLO 205) [µg/mL]	CC50 (HEp-2) [µg/mL]	CC50 (HeLa) [µg/mL]	CC50 [1] [µg/mL]
NCCCSCC(COc1ccc(-c2ccccc2)cc1)SCCCN (stereo unspecified)	1.05 (≈ 2.69 µM)	1.45 (≈ 3.71 µM)	0.68 (≈ 1.74 µM)	0.92 (≈ 2.36 µM)
NCCCSCC(COc1cccc(-c2ccccc2)c1)SCCCN (stereo unspecified)	1.41 (≈ 3.61 µM)	1.36 (≈ 3.48 µM)	1.2 (≈ 3.07 µM)	1.55 (≈ 3.97 µM)
NCCCSCC(COc1ccc(NC(=O)c2cc(-c3ccccc3)nc3ccccc23)cc1)SCCCN (stereo unspecified)	5.2 (≈ 9.27 µM)	1.92 (≈ 3.42 µM)	6.18 (≈ 11 µM)	

— ChEMBL document CHEMBL1127211, “Biselectrostatic interaction with DNA as potential anti-turmor agents: novel 2,11-diamino-5,8-dithiaundecane derivatives” (1993)
